# According to the CATMoS acute toxicity set (Mansouri et al. 2021):
# Test: GHS categories as the set defines them, by LD50: 1 up to 5, 2 up to 50, 3 up to 300, 4 up to 2000, 5 above 2000 mg/kg
# Conditions: rat; in vivo; po
compound,measurement,value
CO/N=C(\C(=O)N[C@@H]1C(=O)N2C(C(=O)[O-])=C(C[N+]34CCC(C(N)=O)(CC3)CC4)CS[C@H]12)c1nsc(N)n1,GHS category,5
CO[C@H]1C[C@H](O[C@H]2[C@H](C)[C@@H](O[C@@H]3O[C@H](C)C[C@H](N(C)C)[C@H]3O)[C@H](C)C[C@@]3(CO3)C(=O)[C@H](C)[C@@H](O)[C@@H](C)[C@@H](C)OC(=O)[C@@H]2C)O[C@@H](C)[C@@H]1O,GHS category,5
O=C(O)c1ccccc1SSc1ccccc1C(=O)O,GHS category,5
ClC(=Nc1c(Cl)c(Cl)c(Cl)c(Cl)c1Cl)C(Cl)(Cl)Cl,GHS category,4
Nc1cccc2c(S(=O)(=O)O)cccc12,GHS category,5
CC[C@H](C)C(=O)O[C@H]1C[C@H](O)C=C2C=C[C@H](C)[C@H](CC[C@@H](O)C[C@@H](O)CC(=O)O)[C@H]21,GHS category,5
CCC(=O)NP(=O)(OC)SC (centres undefined),GHS category,4
CC(C)(C)c1ccc(OP(Oc2ccc(C(C)(C)C)cc2C(C)(C)C)Oc2ccc(C(C)(C)C)cc2C(C)(C)C)c(C(C)(C)C)c1,GHS category,5
CC(C)OC[C@H]1CO[C@@](Cn2cncn2)(c2cc3cc(Cl)cc(Cl)c3o2)O1,GHS category,4
CC(C)(C)CC(C)(C)c1ccc(O)c(-n2nc3ccccc3n2)c1,GHS category,5
OB(O)c1cc(F)c(F)c(F)c1,GHS category,4
CC1Oc2cc(C(=O)c3ccc(Cl)cc3)ccc2N(C)C1=O (centres undefined),GHS category,5
CCOCC(C)OC(C)=O (centres undefined),GHS category,5
CN1CC(c2ccn[nH]2)CC2c3cccc4[nH]cc(c34)CC21 (centres undefined),GHS category,4
Cc1cccc2ncc(C(=O)NC(C)C)c(=O)n12,GHS category,3
NC1=NC(=O)CC(=O)N1,GHS category,5
CN(c1ccccc1)S(=O)(=O)c1cc(O)c2c(N=Nc3ccc(NC(=O)CCl)cc3S(=O)(=O)O)c(N)ccc2c1,GHS category,5
COc1ccc(CCC(C)=O)cc1,GHS category,5
CCOC(/C=C(\C)CCC=C(C)C)OCC,GHS category,5
Nc1cnn(CCO)c1N,GHS category,5
COc1ccc(C(=O)N2CCN(c3ccc4c(c3)CCC(=O)N4)CC2)cc1OC,GHS category,5
CCCc1nc(C)c2c(=O)nc(-c3cc(S(=O)(=O)N4CCN(CC)CC4)ccc3OCC)[nH]n12,GHS category,5
CCCCC(CC)C(c1ccc(O)cc1)c1ccc(O)cc1 (centres undefined),GHS category,4
CC12CCC3c4ccc(OC(=O)c5ccccc5)cc4CCC3C1CCC2OC(=O)CO (centres undefined),GHS category,5
COC(=O)c1ccc(C(=O)Nc2cc(Cl)ccc2Cl)cc1[N+](=O)[O-],GHS category,4
CC(=O)NC1CCc2nc(N)sc2C1 (centres undefined),GHS category,5
CCOc1ccc(C(C)(C)COCc2cccc(Oc3ccccc3)c2)cc1,GHS category,5
CC(C)CCC1CCC(O)CC1 (centres undefined),GHS category,5
CCCOc1nn(-c2cccc(C(F)(F)F)c2)c2ncccc12,GHS category,4
O=c1[nH]cnc2c1ncn2[C@H]1CC[C@@H](CO)O1,GHS category,5
CC(C)Br,GHS category,5
COc1ccccc1N1CCN(CC(O)COc2cccc3ccccc23)CC1 (centres undefined),GHS category,5
O=COC1CCC2CCCCC2C1 (centres undefined),GHS category,5
CCCCCCCCCCCC(=O)OCC(COC(=O)CCCCCC)OC(=O)CCCCCCC (centres undefined),GHS category,5
O=C(O)C(=O)[C@@H](O)[C@H](O)[C@H](O)CO,GHS category,5
Cc1cc(C(C)(CC(=O)OCCOC(=O)CC(C)(c2ccc(O)c(C(C)(C)C)c2)c2ccc(O)c(C(C)(C)C)c2)c2ccc(O)c(C(C)(C)C)c2)cc(C(C)(C)C)c1O (centres undefined),GHS category,5
CC/C=C/C=C\CCCCCCCCOC(C)=O,GHS category,4
Nc1c(Oc2ccccc2)cc(O)c2c1C(=O)c1ccccc1C2=O,GHS category,5
O=C(O)Cc1ccc(OCC(O)CO)c(Cl)c1 (centres undefined),GHS category,5
CCCCC1C(=O)N(c2cccc(O)c2)N(c2cccc(O)c2)C1=O,GHS category,4
O=C(NC(CCc1ccc2c(c1)OCO2)CCc1ccc2c(c1)OCO2)c1cc2ccccc2o1,GHS category,5
O=C1C(O)N=C(c2ccccc2)c2cc(Cl)ccc2N1CC1CC1 (centres undefined),GHS category,5
CCCCCCCCCCCCCC,GHS category,5
OCC1=C[C@H](N[C@H]2C[C@H](CO)[C@@H](O[C@@H]3O[C@H](CO)[C@@H](O)[C@H](O)[C@H]3O)[C@H](O)[C@H]2O)[C@H](O)[C@@H](O)[C@@H]1O,GHS category,5
CCCCNC(=O)CC[C@H](NC(=O)C(CC)CCCC)C(=O)NCCCC (some centres undefined),GHS category,5
Cc1cc(Cc2cc(C)cc(C3CCCCC3)c2O)c(O)c(C2CCCCC2)c1,GHS category,5
CN(CC1(C)CCCO1)S(=O)(=O)c1ccc(Cl)c(S(N)(=O)=O)c1 (centres undefined),GHS category,5
CCC1(CO)COCOC1,GHS category,5
OC1CCC(CN2CCC(=C3c4ccc(F)cc4Sc4ccc(C(F)(F)F)cc43)CC2)CC1 (centres undefined),GHS category,3
O=C1C2C3CC(C(Br)C3Br)C2C(=O)N1CCN1C(=O)C2C3CC(C(Br)C3Br)C2C1=O (centres undefined),GHS category,5
O=S(=O)(O)c1ccc(N2N=C(c3ccc(Cl)cc3)CC2c2ccccc2)cc1 (centres undefined),GHS category,5
O=C(OCCOCCO)c1cc(O)ccc1Nc1cccc(C(F)(F)F)c1,GHS category,4
O=S(=O)(O)c1cccc(Nc2nc(NCCO)nc(Nc3ccc(/C=C/c4ccc(Nc5nc(NCCO)nc(Nc6cccc(S(=O)(=O)O)c6)n5)cc4S(=O)(=O)O)c(S(=O)(=O)O)c3)n2)c1,GHS category,5
C=CC(=O)OCCOCC(CC)(COCCOC(=O)C=C)COCCOC(=O)C=C,GHS category,5
Nc1cc(Cl)c(Cl)cc1S(=O)(=O)O,GHS category,5
Cc1c(C)c2c(c(C)c1OC(=O)C(C)(C)Oc1ccc(Cl)cc1)CC[C@@](C)(CCC[C@H](C)CCC[C@H](C)CCCC(C)C)O2,GHS category,5
OC1C(Cl)(Cl)C(=C(Cl)Cl)C(O)(C(Cl)Cl)C1(Cl)Cl (centres undefined),GHS category,4
CCCCC(O)CCO (centres undefined),GHS category,5
NC1=NCC2c3ccccc3Cc3ccccc3N12 (centres undefined),GHS category,4
CC1COC(Cn2cncn2)(c2cc3ccccc3o2)O1 (centres undefined),GHS category,4
C[C@]12CC[C@H]3[C@@H](CCC4=CC(=O)C=C[C@@]43C)[C@@H]1CC[C@H]2O,GHS category,5
c1ccc(COc2ccc3ccccc3c2)cc1,GHS category,5
CCC(C)CCC(C)(O)CC (centres undefined),GHS category,5
NC(=O)N(CO)CO,GHS category,5
CC(CO)(CO)C(=O)O,GHS category,5
NC(CCOc1ccc(C(=NO)C(=O)NC2CN(C(C(=O)O)c3ccc(O)cc3)C2=O)cc1)C(=O)O (centres undefined),GHS category,5
CC(C)CCCCCCCCCCOCCCN,GHS category,4
CC(=O)SC[C@@H](C)C(=O)N1CCC[C@H]1C(=O)N[C@@H](Cc1ccccc1)C(=O)O,GHS category,5
CCCCCNC(=O)c1ccccc1,GHS category,5
CCCCCCCCCCCCCCCOS(=O)(=O)O,GHS category,5
O=C(O)CNC(=O)c1ccco1,GHS category,5
CCN(CC)CCOC(=O)c1ccc(-n2c(C)nc3ccccc3c2=O)cc1,GHS category,5
Cc1cccc(C)c1N=C(O)c1cccnc1O,GHS category,5
CC[n+]1c(C=Cc2ccc(N3CCCC3)cc2)cccc1C=Cc1ccc(N2CCCC2)cc1,GHS category,5
C=CC(=O)OCCN(C)S(=O)(=O)C(F)(F)C(F)(F)C(F)(F)C(F)(F)F (racemic),GHS category,5
CC(=O)NCCCOc1ccc(C(=O)N2CCC(N3C(=O)CCc4ccccc43)CC2)cc1,GHS category,5
CC(CCc1ccccc1)NCC(O)c1ccc(O)c(C(N)=O)c1 (centres undefined),GHS category,5
CNC(=O)c1cnc2cccc(C)n2c1=O,GHS category,3
CN1CCN(C(=S)SSC(=S)N2CCN(C)CC2)CC1,GHS category,5
CN1C(=O)COc2cc(C(=O)C=Cc3ccc(Cl)cc3)ccc21,GHS category,5
CCN(CC)C(C)C(=O)c1ccccc1 (centres undefined),GHS category,4
CCCCc1c(Cc2ccc(-c3ccccc3-c3nn[nH]n3)cc2)c(=O)nc2nc[nH]n12,GHS category,4
CC(C#N)c1cccc(C(=O)Cl)c1 (centres undefined),GHS category,5
FC(F)(F)c1cccc(C(c2ccccc2)(c2ccccc2)n2cncn2)c1,GHS category,5
C[C@@H]1C[C@@H](C)CC(C)(C)C1,GHS category,5
NC[C@H]1O[C@H](O[C@H]2[C@H](O)[C@@H](O[C@H]3O[C@H](CO)[C@@H](O)[C@H](N)[C@H]3O)[C@H](N)C[C@@H]2N)[C@H](O)[C@@H](O)[C@@H]1O,GHS category,5
COc1cc2c(cc1OC)C(c1ccccc1Cl)N(c1ccccc1)CC2 (centres undefined),GHS category,4
CC(=O)S[C@H]1CC(=O)C=C2C[C@@H](SC(C)=O)[C@@H]3[C@H](CC[C@@]4(C)[C@H]3CC[C@]4(C)O)[C@]21C,GHS category,5
CCCC(=O)OC[C@@H](OC(=O)CCC)[C@@H](OC(=O)CCC)[C@H](Cn1c2nc(=O)[nH]c(=O)c-2nc2cc(C)c(C)cc21)OC(=O)CCC,GHS category,5
CCN(Cc1cccc(S(=O)(=O)O)c1)c1ccc(C(=C2C=CC(=[N+](CC)Cc3cccc(S(=O)(=O)[O-])c3)C=C2)c2ccccc2)cc1,GHS category,5
CC(c1ccccc1)C1Nc2cc(Cl)c(S(N)(=O)=O)cc2S(=O)(=O)N1 (centres undefined),GHS category,5
O=C(c1ccccc1)c1cc([N+](=O)[O-])ccc1S(=O)(=O)NCCCN1CCOCC1,GHS category,4
CCOC(=O)C(C)(C)Br,GHS category,5
CCCCCCOC=O,GHS category,5
O=S(O)c1ccc(Cl)cc1,GHS category,4
O=C(Cc1ccccc1)C1C(=O)CC(c2ccccc2)CC1=O (centres undefined),GHS category,5
O=C(CCc1ccc(O)cc1)Nc1ccccc1C(=O)O,GHS category,5
CC(C)CCCCCCCOCCCNCCCN,GHS category,3
CC1OC(OC2CCC(OC3C(O)CC(c4ccc5c(c4O)C(=O)C4=C(C5=O)C5(O)C(=O)CC(C)(OC6CCC(OC7C=CC(=O)C(C)O7)C(C)O6)CC5(O)C=C4)OC3C)OC2C)C=CC1=O (centres undefined),GHS category,4
CCCC1O[C@@H]2C[C@H]3[C@@H]4CCC5=CC(=O)C=C[C@]5(C)[C@H]4[C@@H](O)C[C@]3(C)[C@]2(C(=O)CO)O1 (some centres undefined),GHS category,5
CCCCn1c(C)c(CC(=O)O)c2c1CC(C)(C)CC2=O,GHS category,5
CN(SN(C)C(=O)Oc1ccc(C(C)(C)c2ccc(OC(=O)N(C)SN(C)C(=O)ON=C3CSCCS3)cc2)cc1)C(=O)ON=C1CSCCS1,GHS category,4
CCN1CCN(C(=O)N[C@@H](C(=O)N[C@@H]2C(=O)N3C(C(=O)O)=C(CSc4nnnn4C)CS[C@H]23)c2ccc(O)cc2)C(=O)C1=O,GHS category,5
Nc1nc2cc([N+](=O)[O-])ccc2o1,GHS category,4
